Experimental data as given in patent US10072005B2, “4-azaindole derivatives” (EISAI R&D MANAGEMENT CO., LTD., priority 2013, dated 2018).

Assays:
[1] = molecular target: mAChR M2 (Homo sapiens (Human), UniProt P08172); experiment: In vitro cellular calcium flux assay, PAM, NAM and agonist modes, mAChR M2; format: cell-based
Description: (§1) Baby hamster kidney cells stably expressing human or rat mAChR M1 to M5 were utilised for primary and selectivity profiling activities. mAChR M2 and M4 cell lines also stably expressed the chimeric Gαqi5 G-protein.
(§2) Human mAChR M1, M3, M5 and rat M1 cells were grown in low glucose Dulbecco's Modified Eagle's Medium (DMEM) medium plus heat inactivated 10% fetal bovine serum (HI FBS) and 500 μg/ml hygromycin B^1. Human mAChR M2 and M4 cells were maintained as above with^2 the addition of 500 μg/ml G418 to the media. Cells were maintained in culture at 37° C./5% CO2 and passaged twice weekly by treatment with 0.05% Trypsin/EDTA detachment solution, centrifugation (200 g, 5 min) and re-suspension in fresh media. Following cell expansion, cells were cryopreserved at −80° C. by treatment with 0.05% Trypsin/EDTA detachment solution, centrifugation (200 g, 5 min) and re-suspension of the pellet in freezing media (90% HI FBS/10% DMSO^3) at 15E6 cells/ml^4.
(§3) Prior to assaying, cells were prepared by thawing at 37° C. in a water bath, centrifugation (200 g, 5 min) and re-suspension of the pellet in fresh media. 15000 cells per well were seeded in black, clear bottomed 384-well Greiner Bio-One plates in plating medium (DMEM/10% HI FBS) and incubated overnight at 37 C/5% CO2.
(§4) On the day of the assay, media was removed from each well and replaced with 50 μl^5 assay buffer (HBSS with 20 mM HEPES and 2.5 mM Probenecid) containing the calcium indicator, Calcium 4 (Molecular Devices). Cells were then incubated at 37° C./5% CO2 for 30 min and at room temperature.
(§5) Compound preparation was carried out by generation of 11-point, 1 in 3 serial dilution concentration response curves in 100% DMSO. Compound was then diluted 1 in 65^6 with assay buffer (HBSS with 20 mM HEPES and 2.5 mM Probenecid) prior to the addition of 10 ul^7 to the cells using a Tetra fluorometric imaging plate reader (Molecular Devices)^8. Compound driven increases in intracellular calcium flux was measured as an increase in fluorescence (494Ex, 516Em)^9.
(§6) Positive allosteric modulator pEC50 values and antagonist pIC50 values for each compound were then determined. […] The points of modification and the alternate reagents, concentrations or equipment employed in these examples were: ^1200 μg/ml hygromycin B; ^2G418 not added; ^3CELLBANKER 1; ^410E6; ^5 40 μl; ^6 1 in 99; ^7 20 μl; ^8FDSS6000 (Hamamatsu Photonics); ^9(480Ex, 540Em); ^10Spotfire (TIBCO).
(§7) Certain compounds were tested in PAM, NAM and agonist modes against mAChR M2, M3, M4 and M5.

[2] = molecular target: mAChR M5 (Homo sapiens (Human), UniProt P08912); experiment: In vitro cellular calcium flux assay, PAM, NAM and agonist modes, mAChR M5; format: cell-based
mAChR M5, sequence (P08912 whole entry): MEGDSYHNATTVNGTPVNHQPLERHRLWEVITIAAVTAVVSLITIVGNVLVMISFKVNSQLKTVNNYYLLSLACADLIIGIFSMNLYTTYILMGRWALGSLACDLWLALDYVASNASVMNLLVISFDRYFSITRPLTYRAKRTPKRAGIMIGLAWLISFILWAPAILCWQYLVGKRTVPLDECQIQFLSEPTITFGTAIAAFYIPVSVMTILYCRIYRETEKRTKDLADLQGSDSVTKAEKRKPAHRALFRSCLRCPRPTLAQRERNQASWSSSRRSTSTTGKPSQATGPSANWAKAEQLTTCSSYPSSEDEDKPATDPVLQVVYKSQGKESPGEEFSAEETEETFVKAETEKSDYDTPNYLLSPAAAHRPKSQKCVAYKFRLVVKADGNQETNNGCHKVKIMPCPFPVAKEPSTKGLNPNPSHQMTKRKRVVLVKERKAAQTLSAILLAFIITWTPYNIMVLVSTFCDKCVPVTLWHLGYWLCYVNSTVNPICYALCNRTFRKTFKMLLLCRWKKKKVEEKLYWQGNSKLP
Description: as §1, §2, §3, §4, §5, §6, §7

[3] = molecular target: mAChR M1 (Homo sapiens, UniProt P11229); experiment: In vitro cellular calcium flux assay, positive allosteric modulation of mAChR M1; format: cell-based; conditions: BHK cells expressing mAChR M1; EC20 carbachol; Examples 76-80 and 82-89 slightly modified procedure
mAChR M1, sequence (P11229 whole entry, looked up): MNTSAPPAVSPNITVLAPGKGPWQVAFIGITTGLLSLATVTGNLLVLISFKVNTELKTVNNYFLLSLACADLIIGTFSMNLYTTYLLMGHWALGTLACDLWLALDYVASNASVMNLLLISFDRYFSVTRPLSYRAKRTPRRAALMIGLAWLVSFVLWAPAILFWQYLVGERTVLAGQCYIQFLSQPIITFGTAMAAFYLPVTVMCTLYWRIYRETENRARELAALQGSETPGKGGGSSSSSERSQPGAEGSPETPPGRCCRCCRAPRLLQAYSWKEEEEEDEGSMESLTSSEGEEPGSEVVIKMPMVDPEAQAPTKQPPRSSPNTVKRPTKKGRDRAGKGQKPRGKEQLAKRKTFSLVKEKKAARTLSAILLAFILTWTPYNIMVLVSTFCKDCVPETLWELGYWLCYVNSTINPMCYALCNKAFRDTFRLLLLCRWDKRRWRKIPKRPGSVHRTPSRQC
Summary of the method: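 Baby hamster kidney cells stably expressing human mAChR M1, loaded with Calcium 4 dye in HBSS/20 mM HEPES/2.5 mM probenecid for 30 min at 37 °C. An 11-point 1-in-3 compound dilution series was added and calcium rise read as fluorescence; positive allosteric modulator pEC50 and antagonist pIC50 derived.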

[4] = test system: Male Lister Hooded rats; experiment: Novel Object Recognition test; format: in vivo; conditions: rat, 24 h delay
Description: The Novel Object Recognition test (NOR) is based on the greater spontaneous exploration of a novel object, compared with a familiar object, observed in rodents (Behav. Brain Res., 1988, 31(1), 47-59). […] Therefore, it is considered to be analogous to recognition memory tests used in human clinical testing. Male Lister Hooded rats were assessed for object recognition in a test apparatus comprising of a perspex test arena housed within a sound attenuating chamber. Video images of behaviour were captured by digital camera and recorded to a computer. Rats were habituated to the test arena on four occasions prior to testing. Habituation sessions replicated the test day sequence exactly with the exception of object presentation. On test days, each rat was placed into the test arena and 3 minutes later the rat was presented with two identical objects (plastic shapes). The time spent actively exploring the objects during a 3-minute test period (T1) was recorded. Following T1 rats were returned to home cages. After 24 hours each rat was again placed in the test arena and 3 minutes later was presented with one of the now familiar objects and a novel object, and again the time spent actively exploring the objects during a 3-minute test period (T2) was recorded. The presentation order and position of objects (left/right) was randomised within groups to prevent bias from order or place preference. Objects were cleaned with 70% ethanol solution between trials to remove any olfactory/taste cues. Compounds were administered by oral gavage at an appropriate pre-treatment time prior to T1 and T2 (n=12) at dosage ranges between 0.03 and 3 mg/kg. In some experiments the 5-HT6 receptor antagonist N-(3,5-dichloro-2-methoxyphenyl)-4-methoxy-3-(piperazin-1-yl)benzenesulfonamide (CAS 402713-80-8) (10 mg/kg p.o.; 4 h pre-treatment time) was included as a positive control. Vehicle controls (1% methylcellulose in water) were included for comparison in each study. Results are expressed as the d2 index (difference in time spent exploring novel and familiar objects/total object exploration in T2).

[5] = molecular target: mAChR M3 (Homo sapiens (Human), UniProt P20309); experiment: In vitro cellular calcium flux assay, PAM, NAM and agonist modes, mAChR M3; format: cell-based
mAChR M3, sequence (P20309 whole entry, looked up): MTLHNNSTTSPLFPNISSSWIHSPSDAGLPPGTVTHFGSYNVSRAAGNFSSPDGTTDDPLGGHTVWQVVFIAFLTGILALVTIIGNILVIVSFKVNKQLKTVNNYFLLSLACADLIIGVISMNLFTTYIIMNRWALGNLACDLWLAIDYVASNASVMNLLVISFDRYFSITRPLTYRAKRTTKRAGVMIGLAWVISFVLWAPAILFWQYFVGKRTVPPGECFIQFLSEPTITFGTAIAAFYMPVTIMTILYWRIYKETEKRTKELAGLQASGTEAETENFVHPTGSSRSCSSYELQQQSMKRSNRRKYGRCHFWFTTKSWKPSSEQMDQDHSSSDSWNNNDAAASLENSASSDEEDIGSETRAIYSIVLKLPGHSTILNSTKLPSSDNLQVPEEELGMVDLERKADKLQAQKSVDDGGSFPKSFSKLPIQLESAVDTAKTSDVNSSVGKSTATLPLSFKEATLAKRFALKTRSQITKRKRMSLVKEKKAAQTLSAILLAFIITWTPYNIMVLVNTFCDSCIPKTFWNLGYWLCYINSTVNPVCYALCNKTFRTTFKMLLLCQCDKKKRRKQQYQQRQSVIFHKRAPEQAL
Description: as §1, §2, §3, §4, §5, §6, §7

[6] = molecular target: mAChR M4 (Homo sapiens (Human), UniProt P08173); experiment: In vitro cellular calcium flux assay, PAM, NAM and agonist modes, mAChR M4; format: cell-based
mAChR M4, sequence (P08173 whole entry): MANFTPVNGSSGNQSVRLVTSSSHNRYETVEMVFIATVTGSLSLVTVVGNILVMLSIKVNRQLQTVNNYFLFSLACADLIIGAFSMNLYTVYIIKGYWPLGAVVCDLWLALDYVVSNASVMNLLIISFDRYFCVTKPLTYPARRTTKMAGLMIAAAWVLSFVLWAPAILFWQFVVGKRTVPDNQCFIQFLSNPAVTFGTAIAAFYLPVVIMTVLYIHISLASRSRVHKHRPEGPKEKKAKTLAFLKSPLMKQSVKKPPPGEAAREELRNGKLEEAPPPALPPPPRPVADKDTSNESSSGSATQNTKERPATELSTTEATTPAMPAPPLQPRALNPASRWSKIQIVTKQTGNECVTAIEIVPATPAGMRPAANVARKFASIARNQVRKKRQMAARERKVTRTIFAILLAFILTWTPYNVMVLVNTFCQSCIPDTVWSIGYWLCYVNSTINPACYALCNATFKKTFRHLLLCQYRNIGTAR
Description: as §1, §2, §3, §4, §5, §6, §7

mAChR M2, sequence (P08172 whole entry): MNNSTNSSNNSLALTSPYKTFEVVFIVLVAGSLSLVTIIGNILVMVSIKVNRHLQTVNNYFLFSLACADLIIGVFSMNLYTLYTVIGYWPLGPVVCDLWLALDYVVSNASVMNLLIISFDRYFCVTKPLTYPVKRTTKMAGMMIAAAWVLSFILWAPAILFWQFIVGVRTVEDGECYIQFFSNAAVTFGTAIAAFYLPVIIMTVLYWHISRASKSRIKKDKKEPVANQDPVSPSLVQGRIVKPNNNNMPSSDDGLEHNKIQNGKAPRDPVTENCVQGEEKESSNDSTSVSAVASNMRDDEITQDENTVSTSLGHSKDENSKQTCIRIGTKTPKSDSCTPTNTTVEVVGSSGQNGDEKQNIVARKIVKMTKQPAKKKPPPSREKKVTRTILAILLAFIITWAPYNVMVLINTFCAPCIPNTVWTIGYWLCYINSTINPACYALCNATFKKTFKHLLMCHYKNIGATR

Structure (SMILES) | EC50 [1] [µM] | EC50 [2] [µM] | pEC50 for positive allosteric modulation [3] | d2 index [mean ± SEM] ([4]; 0.1 mg/kg p.o.) | d2 index [mean ± SEM] ([4]; 0.3 mg/kg p.o.) | d2 index [mean ± SEM] ([4]; 1 mg/kg p.o.) | EC50 [5] [µM] | EC50 [6] [µM] | d2 index [mean ± SEM] ([4]; 3 mg/kg p.o.) | d2 index [mean ± SEM] ([4]; 0.03 mg/kg p.o.)
O=C(NC1CCC(F)(F)C[C@@H]1O)c1cn(Cc2ccc(F)cc2)c2cccnc12 (single isomer, unassigned) [Example 34, N-(trans-4,4-Difluoro-2-hydroxycyclohexyl)-1-(4-fluorobenzyl)-1H-pyrrolo[3,2-b]pyridine-3-carboxamide] | > 10 | > 10 | 6.9 | [0.08 ± 0.08] | [0.24 ± 0.05]* | [0.23 ± 0.06]* | > 10 | > 10 |  | 
Cc1cc(Cn2cc(C(=O)N[C@H]3CCCC[C@@H]3O)c3ncccc32)ccc1F [Example 6, 1-(4-Fluoro-3-methylbenzyl)-N-((1S,2S)-2-hydroxycyclohexyl)-1H-pyrrolo[3,2-b]pyridine-3-carboxamide] | > 10 | > 10 | 6.7 |  | [0.11 ± 0.09] | [0.27 ± 0.08]* | > 10 | > 10 | [0.36 ± 0.09]** | 
O=C(N[C@H]1CCCC[C@@H]1O)c1cn(Cc2cccc(F)c2F)c2cccnc12 [Example 8, 1-(2,3-Difluorobenzyl)-N-((1S,2S)-2-hydroxycyclohexyl)-1H-pyrrolo[3,2-b]pyridine-3-carboxamide] | > 10 | > 10 | 6.5 | [0.09 ± 0.06] | [0.34 ± 0.06]*** |  | > 10 | > 10 |  | [0.00 ± 0.07]
Cc1ccnc2c(C(=O)N[C@H]3CCCC[C@@H]3O)cn(Cc3ccc(F)cc3)c12 [Example 10, 1-(4-Fluorobenzyl)-N-((1S,2S)-2-hydroxycyclohexyl)-7-methyl-1H-pyrrolo[3,2-b]pyridine-3-carboxamide] | > 10 | > 10 | 7.7 | [0.18 ± 0.09] | [0.30 ± 0.08]** |  | > 10 | > 10 |  | [0.18 ± 0.10]
Cc1ccnc2c(C(=O)N[C@H]3CCCC[C@@H]3O)cn(Cc3cccc(F)c3F)c12 [Example 11, 1-(2,3-Difluorobenzyl)-N-((1S,2S)-2-hydroxycyclohexyl)-7-methyl-1H-pyrrolo[3,2-b]pyridine-3-carboxamide] | > 10 | > 10 | 6.9 |  | [0.24 ± 0.06] | [0.24 ± 0.07] | > 10 | > 10 | [0.31 ± 0.06]** | 
COc1ccc(Cn2cc(C(=O)N[C@H]3CCCC[C@@H]3O)c3nccc(C)c32)cc1 [Example 12, N-((1S,2S)-2-Hydroxycyclohexyl)-1-(4-methoxybenzyl)-7-methyl-1H-pyrrolo[3,2-b]pyridine-3-carboxamide] | > 10 | > 10 | 7.7 |  | [0.13 ± 0.06] | [0.30 ± 0.05]*** | > 10 | > 10 | [0.33 ± 0.06]*** | 
COc1ccc(Cn2cc(C(=O)N[C@H]3CCCC[C@@H]3O)c3nccc(C)c32)cc1F [Example 13, 1-(3-Fluoro-4-methoxybenzyl)-N-((1S,2S)-2-hydroxycyclohexyl)-7-methyl-1H-pyrrolo[3,2-b]pyridine-3-carboxamide] | > 10 | > 10 | 7.9 |  | [0.09 ± 0.05] | [0.13 ± 0.07] | > 10 | > 10 | [0.25 ± 0.09]* | 
COc1ccc(Cn2cc(C(=O)N[C@H]3CCCC[C@@H]3O)c3nccc(OC)c32)cc1 [Example 105, N-((1S,2S)-2-hydroxycyclohexyl)-7-methoxy-1-(4-methoxybenzyl)-1H-pyrrolo[3,2-b]pyridine-3-carboxamide] |  |  | 6.7 |  |  |  |  |  |  | 
